The source of these data is patent US11117912B1, “Platinum(II) complexes containing dicyclopentadiene and dithiocarbamate as anticancer agents” (King Fahd University of Petroleum and Minerals, priority 2020, dated 2021).

Broadly, the IC50 is the point on the concentration scale where inhibition reaches its midpoint. A high value points to weaker potency.

SMILES strings stand for the structures.

Data set [1] deals with HeLa cells. In words: xCelligence real-time cell analysis (RTCA) cytotoxicity assay, HeLa. Type of data set: cell-based, human. On the procedure: (§1) The A549 and HeLa cell lines were cultured directly in DMEM (Dulbecco's Modified Eagle Medium), and then supplemented with 10% fetal bovine serum (FBS) and 1% streptomycin/penicillin. Then, the cancer cell samples were kept in a humidified incubator at 37° C. with 5% CO2.
(§2) The cytotoxicity of complexes was measured using xCelligence RTCA DP system (ACEA Biosciences, San Diego, Calif., USA). Briefly, the instrument was positioned in a humidified incubator at 37° C. with 5% CO2. The cytotoxicity experiments were conducted using modified 16-well plate (E-plate) with gold-microelectrodes attached at the base of the wells for the impedance-based attachment detection, cell distribution, and proliferation. A 50 μL of cell-free growth DMEM with 10% FBS was added to the wells. Then, the system was connected to measure the background impedance for each well for 30 min. A549 and HeLa cells were harvested using 0.05% Trypsin-EDTA (ethylenediaminetetraacetic acid), and then counted using LUNA automated cell counter (Logos Biosystem, Seoul, South Korea). 50 μL of the cell suspension was then added directly to each well containing 50 μL of cell-free growth DMEM with 10% FBS—Final to reach cell density of 5×10^3. The plates were left at room temperature for about 30 minutes and then inserted to xCelligence RTCA DP device. The xCelligence RTCA system software v.2.0 automatically monitored the impedance value of individual well. These values are expressed as CI (Cell Index) every 15 minutes. […] Then, cells were real time-monitored for 72 hours. All tested compounds were dissolved in DMSO, while cisplatin in normal saline solution. The final concentration of DMSO was less than 0.1% in each well. For negative control, 0.1% DMSO solution was used. Then IC50 values for all compounds at 24 hours and 72 hours were calculated using RTCA software v.2.0.
(§3) For all impedance profiles, the sigmoidal dose-response curves (FIGS. 2A-D) were obtained, and IC50 values were calculated (see Table 4). The calculations were based upon the CI, which is a relative and dimensionless value representing the impedance change divided by the background value, and thus reflects the overall number of cells and the quality of their attachment [D. Kho, C. MacDonald, R. Johnson, C. P. Unsworth, S. J. O'Carroll, E. du Mez, C. E. Angel, E. S. Graham. […] Biosensors 5 (2015) 199-222, incorporated herein by reference in its entirety]. The CI can change as a function of time, resulting in time-dependent and dose-dependent impedance profiles during an experiment [D. Kho, C. MacDonald, R. Johnson, C. P. Unsworth, S. J. O'Carroll, E. du Mez, C. E. Angel, E. S. Graham. […] Biosensors 5 (2015) 199-222, incorporated herein by reference in its entirety].

The test system of data set [2] is A549 cells. In words: xCelligence real-time cell analysis (RTCA) cytotoxicity assay, A549. Type of data set: cell-based, human. On the procedure: as §1, §2, §3
The test system of data set [3] is A549 cells. Nature of the data set: Lactate dehydrogenase (LDH) release assay, A549. Particulars: 72 hours. In kind it is cell-based, human. The procedure:
(§4) The release of lactate dehydrogenase (LDH) of A549 and HeLa cells in response to the cytotoxic effect of complexes 1 and 2 was measured using the LDH cytotoxic kit protocol (Dojindo, japan). The A549 and HeLa cells were plated into 96-well plate at 5×10^5 density for overnight. The cells were treated with complexes (1 and 2) at concentrations of IC25 (0.9 μM), IC50 (1.8 […]), and IC100 (3.6 μM) in triplicate for about 72 hours. In the day of reading, 10 μL of the Lysis Buffer was added to each well of the high control. The plate was incubated at 37° C. in CO2 incubator for 30 minutes. Then, 100 μL of the Working Solution was added to each well and incubated at room temperature for 30 minutes. Then, 50 μL of the Stop Solution was added to each well before measuring the absorbance at 490 nm using Mithras 943 micro-plate reader (Berthold Tech, Wildbad, Germany). The high control (DMSO+Cells suspension+lysis buffer) and low control (DMSO+cell suspension) were used to determine the percentage of fold changes in LDH according to the following equation (I). % in LDH changes=(Low control−Test)/(Low control−High control)×100 (I)
(§5) The release of lactate dehydrogenase (LDH) directly into the culture medium is an indication of loss of membrane integrity of a cell due to necrosis or apoptosis. Therefore, the LDH activity in the medium can be used as an indicator for cell membrane integrity, and thus for measuring cytotoxicity. […] The cytotoxic effect of complexes 1 and 2 was evaluated by the release of lactate dehydrogenase (LDH) on treated cells (A549 and HeLa). The cells were treated with the complexes at concentrations of 0.9 μM, 1.8 μM, and 3.6 μM, respectively, for 72 hours.

Data set [4] deals with HeLa cells. In words: Lactate dehydrogenase (LDH) release assay, HeLa. In kind it is cell-based, human. The following applies: 72 hours. The procedure: as §4, §5
For data set [5], the system named is HeLa cells. Nature of the data set: Wound healing assay (cell migration). In kind it is cell-based, human. The following applies: for cells migrated, % of the cell-free area (scratch closure): DMSO control approximately 73%. The procedure: The Culture-Insert 2 Well (ibidi Gmbh, Germany) was placed into micro-plate 24. 70 μL of 5×10^5 of HeLa cells was seeded into the culture-insert. The seeded cells were incubated for 24 hours under a specific condition (37° C., 5% CO2) to form monolayer cells. After 24 hours of the incubation, the culture-inserts were removed and the cells were gently washed with PBS to remove cell debris and detached cells. The cells were then treated with the cell culture mediums containing complex 1 at specific concentrations (1, 3, 10, 30 μM) and containing 0.1% DMSO as control. All assays were conducted in duplicates. In order to analyze the migration capacity, images of the cells were taken at 0 hours, 6 hours, and 12 hours using Optika microscope, Italy. The gap closure was determined using a web-based quantitative image solution (http://www.metavilabs.com/metavi2/index.html)
Cell migration is essential in the development and maintenance of multicellular organism. It plays a central role in tissue formation during embryonic development, organ formation, immune responses, and most importantly (as in this experiment) in wound healing. Wound healing assay is a standard in vitro technique to determine collective cell migration in two dimensions. In this assay, an insert is used to create a cell-free gap in confluent monolayer cells. The wound healing assay is initiated by removing the insert. The cell-free gap is then exposed to the cell culture medium to induce the cells to migrate into the gap until new cell-to-cell contacts are established.
The wound healing images were recorded at three different time intervals using microscope to assess the directional collective migration of the cells. The rate of wound healing was determined by measuring the change in the gap size of the cell-free area after treatment with various concentrations of complex 1 recorded over specific time-intervals (e.g., 0 hour, 6 hours, and 12 hours). The gap was measured for each frame in the wound healing and plotted as a function of time to determine the cell migration rate. The effect of varying concentration of complex 1 (1, […], 10, 30 μM) and 0.1% of DMSO (control cells) against HeLa cell migration rate was studied. […] Meanwhile, the cells treated with four different concentrations of complex 1 (1, 3, 10, 30 μM) migrated approximately 57%, 54%, 49%, and 28%, respectively. […] Further molecular studies are required to understand the mechanism behind the inhibition of cell migration.

The subject of the next data set is mice. In words: Acute kidney toxicity study. The text has this:
The mice were separated into three groups ((I), (II), and (III)) with four animals per each cage. Group (I) was served as normal control group, which received only vehicle (0.1 volume % DMSO). […] Six hours prior to the experiment, no food and water were given. […] On the day three, the animals were sacrificed by the overdose of xylazine and ketamine anesthesia. Blood samples were collected for Blood Urea Nitrogen (BUN) and serum creatinine (CRE2) measurements. All mice were allowed one week to acclimatize prior to the experiments (five animals per cage), under standard environmental conditions (12 h light-dark cycle). The animal studies were performed according to the king Saud University ethical committee.
Kidney biochemical markers, BUN and CRE2, were used for nephrotoxicity study.

[6] abbreviates: equimolar single doses of 25 mg/kg, 72 hours.

As to `C1=CC2C3C=CC(C3)C2C1.CCN(CC)C(=S)[S][Pt+].F[P-](F)(F)(F)(F)F` (centres unmarked) [Complex 2], the IC50 in the data set with HeLa cells [1] (24 hours) was determined as 6.1 µM; in the data set with HeLa cells [1] (72 hours), 3.52 µM; with A549 cells [2] (A549, 24 hours), 7.61 µM; with A549 cells [2] (A549, 72 hours) it was 3.37 µM. Besides, the “Percent (%) release of LDH” value in the data set with A549 cells [3] (A549, 0.9 μM) was 32.18 ± 0.004%; with A549 cells [3] (A549, 1.8 μM) it was 41.05 ± 0.01%; in the data set on A549 cells [3] (A549, 3.6 μM) it was 44.85 ± 0.01%; in the data set with HeLa cells [4] (0.9 μM), 45.52 ± 0.001%; in the data set on HeLa cells [4] (1.8 μM), 68.19 ± 0.04%; with HeLa cells [4] (3.6 μM), 94.13 ± 0.05%.

Turning to `C1=CC2C3C=CC(C3)C2C1.F[P-](F)(F)(F)(F)F.S=C([S][Pt+])N(Cc1ccccc1)Cc1ccccc1` [Complex 3], the “change in cytotoxicity with longer exposure time” value in the data set on HeLa cells [1] (24 vs 72 hours) is “a decrease in cytotoxicity was observed with longer exposure time”; in the data set on A549 cells [2] (A549, 24 vs 72 hours) it was “a decrease in cytotoxicity was observed with longer exposure time”. Besides, the IC50 with HeLa cells [1] (24 hours) stood at 3.18 µM; in the data set with HeLa cells [1] (72 hours), 11.4 µM; with A549 cells [2] (A549, 24 hours), 3.31 µM; in the data set on A549 cells [2] (A549, 72 hours) it was 7.83 µM.

As for `N.N.[Cl][Pt][Cl]` [Cisplatin, reference compound], the IC50 was greater than 30 µM in the data set on HeLa cells [1] (24 hours); greater than 30 µM in the data set with HeLa cells [1] (72 hours); greater than 30 µM with A549 cells [2] (A549, 24 hours); greater than 30 µM in the data set on A549 cells [2] (A549, 72 hours).

`C1=CC2C3C=CC(C3)C2C1.CN(C)C(=S)[S][Pt+].F[P-](F)(F)(F)(F)F` (centres unmarked) [Complex 1]: the “cells migrated, % of the cell-free area (scratch closure)” value in the data set with HeLa cells [5] (1 μM) is “approximately 57%”; in the data set on HeLa cells [5] (3 μM), roughly 54%; in the data set with HeLa cells [5] (10 μM), roughly 49%; with HeLa cells [5] (30 μM), roughly 28%. Further, the “effect on cell migration rate” value with HeLa cells [5] (1-30 μM, 0-12 h) was “slowed down the cell migration rate in a concentration-dependent manner”. Besides, the IC50 in the data set with HeLa cells [1] (24 hours) came to 1.72 µM; in the data set on HeLa cells [1] (72 hours), 1.87 µM; with A549 cells [2] (A549, 24 hours) it was 2.92 µM; with A549 cells [2] (A549, 72 hours), 1.74 µM. Moreover, in the data set on mice (72 h after single dose, 25 mg/kg cisplatin or equimolar complex 1, CTR 6.7 ± 0.1), the “Blood Urea Nitrogen (BUN) level in Plasma” value amounted to 6.06 ± 0.08. Moreover, in the data set with mice (72 h after single dose, 25 mg/kg cisplatin or equimolar complex 1, CTR 17.4 ± 0.58), the “Creatinine (CRE2) level in Plasma” value was determined as 15.8 ± 0.45. Moreover, the “BUN and CRE2 levels in response to the complex (in words)” value with mice (72 hours) is “control and normal”. Further, in the data set with mice (setting [6]), the “physical or abnormal changes” value is recorded as “No physical or abnormal changes”. For the same compound, in the data set with mice (setting [6]), the “survival of the treatment period” value is reported as “all animals survived”. Moreover, the “acute kidney toxicity compared to cisplatin” value with mice (nephrotoxicity tests) is recorded as “less toxic compared to cisplatin”. Also, the “Percent (%) release of LDH” value in the data set on A549 cells [3] (A549, 0.9 μM) was 31.93 ± 0.01%; with A549 cells [3] (A549, 1.8 μM) it was 43.33 ± 0.02%; with A549 cells [3] (A549, 3.6 μM), 47.00 ± 0.01%; in the data set on HeLa cells [4] (0.9 μM), 60.16 ± 0.02%; with HeLa cells [4] (1.8 μM) it was 73.07 ± 0.03%; in the data set with HeLa cells [4] (3.6 μM) it was 95.57 ± 0.02%.
